Laboratory results reported in patent US20240358692A1, “TREATMENT OF SCLERODERMA” (Aisa Pharma, Inc., priority 2023, published 2024).

What was measured:
[1] = tested on: participants with SSc-RP; assay: SHAQ - Standard Disability Index; format: in vivo, human; set-up: key to SHAQ Standard Disability Index, In-Clinic Visit (Day 12), Mean / SHAQ Standard Disability Index, In-Clinic Visit (Day 12), Median / SHAQ Standard Disability Index, Day 12, Mean / SHAQ Standard Disability Index, Day 12, Median: 0 = without any difficulty to 3 = unable to do; details: Tadalafil 5 mg
Description: (§1) The standard, validated, patient reported outcome measures tool for SSc patients, the Scleroderma Health Assessment Questionnaire (SHAQ), will be used to assess the participant qualify of life. Details are attached in the Appendix. The participant quality of life will be scored, and a disability index calculated for each questionnaire completed by the patient at Screening and each in-clinic visit. The absolute change in participant quality of life from baseline to the end of each dosing period will be calculated similar to frequency data as before.
The SHAQ is used to calculate a Disability Index to assess the participant qualify of life. The eight categories assessed by the Disability Index are 1) dressing and grooming, 2) arising, 3) eating, 4) walking, 5) hygiene, 6) reach, 7) grip, and 8) common daily activities. For each of these categories, patients report the amount of difficulty they have in performing two or three specific activities.
There are four possible responses for the Disability Index questions: • Without any difficulty=0 • With some difficulty=1 • With much difficulty=2 • Unable to do=3 • The highest score reported by the patient for any component question of the eight categories determines the score for that category. • If a component question is left blank or the response is too ambiguous to assign a score, then the score for that category is determined by the remaining completed question(s). • If all component questions are blank or if more than one answer is given, then follow up with the respondent is required. • If the respondent's mark is between the response columns, then move it to the closest one. If it's directly between the two, move it to the higher one.
This question results in a new set of category scores that are computed by adjusting the score for each category, if necessary, based on the patient's use of an aid or device or assistance for that category. If either devices and/or help from another person are checked for a category, the score is set to “2”, unless the score is already “3” (i.e., scores of “0” or “1” are increased to “2”). For example, if the highest score for the dressing category is “1”, and the patient says they use a device for dressing, the computed category score would be “2”. The sum of the computed categories scores is then calculated and divided by the number of categories answered. This gives a score in the 0 to 3 range.

[2] = tested on: participants with SSc-RP; assay: SHAQ - Visual Analog Scale - Overall Disease Severity; format: in vivo, human; details: tadalafil 5 mg
Description: as §1
The standard, validated, patient reported outcome measures tool for SSc patients, the SHAQ, was collected at the time points specified in the study schedules (FIG. 2 and FIGS. 4A and 4B) to assess the participant's quality of life. The SHAQ included a Raynaud's VAS that will also be reported separately.

[3] = Day 12, PP Population Part A, sensitivity analysis

SMILES: CN1CC(=O)N2[C@H](c3ccc4c(c3)OCO4)c3[nH]c4ccccc4c3C[C@@H]2C1=O [Tadalafil]
- SHAQ Standard Disability Index, In-Clinic Visit (Day 12), Mean [1, 3]: 0.531
- SHAQ Standard Disability Index, In-Clinic Visit (Day 12), Median [1, 3]: 0.563
- SHAQ Standard Disability Index, Change from Baseline, Max ([1]; SSc patients, PP, Part A): 0.00
- SHAQ Standard Disability Index, Change from Baseline, Min ([1]; SSc patients, PP, Part A): −0.13,
- SHAQ Standard Disability Index, Change from Baseline, Q1 ([1]; SSc patients, PP, Part A): −0.125,
- SHAQ Standard Disability Index, Change from Baseline, Q3 ([1]; SSc patients, PP, Part A): 0.000
- SHAQ Standard Disability Index, Day 12, Max ([1]; SSc patients, PP, Part A): 1.00
- SHAQ Standard Disability Index, Day 12, Min ([1]; SSc patients, PP, Part A): 0.00,
- SHAQ Standard Disability Index, Day 12, Q1 ([1]; SSc patients, PP, Part A): 0.250,
- SHAQ Standard Disability Index, Day 12, Q3 ([1]; SSc patients, PP, Part A): 0.813
- SHAQ Standard Disability Index, Percent Change from Baseline, Max ([1]; SSc patients, PP, Part A): 0.0
- SHAQ Standard Disability Index, Percent Change from Baseline, Min ([1]; SSc patients, PP, Part A): −16.7,
- SHAQ Standard Disability Index, Percent Change from Baseline, Q1 ([1]; SSc patients, PP, Part A): −16.67,
- SHAQ Standard Disability Index, Percent Change from Baseline, Q3 ([1]; SSc patients, PP, Part A): 0.00
- VAS Overall Severity Change from Baseline Max [2]: 2.40
- VAS Overall Severity Change from Baseline Median [2]: 0.700
- VAS Overall Severity Change from Baseline Min [2]: −1.30
- VAS Overall Severity Change from Baseline Q1 [2]: −0.600
- VAS Overall Severity Change from Baseline Q3 [2]: 1.850
- VAS Overall Severity Day 12 Max [2]: 9.10
- VAS Overall Severity Day 12 Mean [2]: 5.600
- VAS Overall Severity Day 12 Min [2]: 0.20
- VAS Overall Severity Day 12 Q1 [2]: 2.200
- VAS Overall Severity Day 12 Q3 [2]: 9.000
- VAS Overall Severity Percent Change from Baseline Max [2]: 100.0%
- VAS Overall Severity Percent Change from Baseline Min [2]: −23.6%
- VAS Overall Severity Percent Change from Baseline Q1 [2]: −3.48%
- VAS Overall Severity Percent Change from Baseline Q3 [2]: 68.46%
